Read-outs that look alike come from different tables or passages of the source.
Assays:
ABL or ARG = test: Probe-based (AX9989) kinase profiling in Jurkat lysate: ABL or ARG; format: binding
Method in brief: (§1)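 Read-out: LC/MS intensity of desthiobiotinylated kinase active-site peptides, percent inhibition normalized to no-compound lysate. Jurkat lysate with 20 mM MnCl2 received compound for 15 min at room temperature, then 5 μM AX9989 probe; duplicates.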

ERK5 = target: T1, ERK5 (Homo sapiens, UniProt Q13164); test: Probe-based (AX9989 acyl phosphate ATP probe) kinase profiling in Jurkat lysate: ERK5; format: binding; conditions: for IC50: Jurkat lysate
T1 construct: screened for activity against several kinases in Jurkat cells; endogenous in cells; host or cells: Jurkat cell lysate
T1 sequence (Q13164 whole entry): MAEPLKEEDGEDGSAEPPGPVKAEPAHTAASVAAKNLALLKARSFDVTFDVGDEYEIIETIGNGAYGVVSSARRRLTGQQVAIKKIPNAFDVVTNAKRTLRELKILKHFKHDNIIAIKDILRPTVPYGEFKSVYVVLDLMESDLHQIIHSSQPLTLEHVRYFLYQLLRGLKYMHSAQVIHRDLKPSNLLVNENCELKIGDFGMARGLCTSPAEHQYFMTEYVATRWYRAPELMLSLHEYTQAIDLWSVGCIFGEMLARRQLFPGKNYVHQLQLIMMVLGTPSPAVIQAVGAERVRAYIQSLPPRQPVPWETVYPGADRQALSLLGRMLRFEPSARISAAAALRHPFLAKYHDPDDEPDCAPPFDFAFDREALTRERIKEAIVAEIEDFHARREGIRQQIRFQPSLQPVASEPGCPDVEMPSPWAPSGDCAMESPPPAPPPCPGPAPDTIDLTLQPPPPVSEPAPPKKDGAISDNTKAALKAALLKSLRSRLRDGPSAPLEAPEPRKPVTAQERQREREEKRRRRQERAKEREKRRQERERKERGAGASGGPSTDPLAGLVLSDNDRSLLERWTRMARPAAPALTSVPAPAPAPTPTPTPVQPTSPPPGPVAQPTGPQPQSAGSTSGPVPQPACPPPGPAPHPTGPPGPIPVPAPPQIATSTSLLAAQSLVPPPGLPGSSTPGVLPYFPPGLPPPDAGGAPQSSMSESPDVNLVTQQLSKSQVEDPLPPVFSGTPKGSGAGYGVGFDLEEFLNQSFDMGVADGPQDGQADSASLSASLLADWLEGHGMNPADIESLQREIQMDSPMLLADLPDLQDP
Method in brief: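 ERK5 IC50 values came from percent inhibition at the screening concentration, measured as loss of LC/MS signal of probe-labelled active-site peptides. Compound was added for 15 min at room temperature to Jurkat lysate (5 mg/ml, 20 mM MnCl2) before labelling with AX9989 ATP acyl phosphate probe at 5 μM.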

AurA = target: T2, AurA (Homo sapiens, UniProt O14965); test: Probe-based (AX9989) kinase profiling in Jurkat lysate: AurA; format: binding
T2 construct: screened for activity against several kinases in Jurkat cells; endogenous in cells; host or cells: Jurkat cell lysate
T2 sequence (O14965 1-403): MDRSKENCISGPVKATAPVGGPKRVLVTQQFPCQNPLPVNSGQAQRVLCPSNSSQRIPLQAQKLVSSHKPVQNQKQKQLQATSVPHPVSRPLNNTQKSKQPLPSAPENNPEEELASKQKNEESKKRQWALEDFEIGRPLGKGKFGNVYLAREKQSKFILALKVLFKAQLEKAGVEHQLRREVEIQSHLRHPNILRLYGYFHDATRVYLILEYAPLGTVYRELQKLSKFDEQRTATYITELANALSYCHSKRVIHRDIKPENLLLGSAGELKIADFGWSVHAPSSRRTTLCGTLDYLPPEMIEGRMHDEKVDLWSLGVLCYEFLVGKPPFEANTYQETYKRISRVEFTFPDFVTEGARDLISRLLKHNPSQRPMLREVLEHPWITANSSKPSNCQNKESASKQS
Method in brief: as §1

JAK1 = target: T3, JAK1 (Homo sapiens, UniProt P23458); test: Probe-based (AX9989) kinase profiling in Jurkat lysate: JAK1; format: binding
T3 construct: screened for activity against several kinases in Jurkat cells; endogenous in cells; host or cells: Jurkat cell lysate
T3 sequence (P23458 whole entry): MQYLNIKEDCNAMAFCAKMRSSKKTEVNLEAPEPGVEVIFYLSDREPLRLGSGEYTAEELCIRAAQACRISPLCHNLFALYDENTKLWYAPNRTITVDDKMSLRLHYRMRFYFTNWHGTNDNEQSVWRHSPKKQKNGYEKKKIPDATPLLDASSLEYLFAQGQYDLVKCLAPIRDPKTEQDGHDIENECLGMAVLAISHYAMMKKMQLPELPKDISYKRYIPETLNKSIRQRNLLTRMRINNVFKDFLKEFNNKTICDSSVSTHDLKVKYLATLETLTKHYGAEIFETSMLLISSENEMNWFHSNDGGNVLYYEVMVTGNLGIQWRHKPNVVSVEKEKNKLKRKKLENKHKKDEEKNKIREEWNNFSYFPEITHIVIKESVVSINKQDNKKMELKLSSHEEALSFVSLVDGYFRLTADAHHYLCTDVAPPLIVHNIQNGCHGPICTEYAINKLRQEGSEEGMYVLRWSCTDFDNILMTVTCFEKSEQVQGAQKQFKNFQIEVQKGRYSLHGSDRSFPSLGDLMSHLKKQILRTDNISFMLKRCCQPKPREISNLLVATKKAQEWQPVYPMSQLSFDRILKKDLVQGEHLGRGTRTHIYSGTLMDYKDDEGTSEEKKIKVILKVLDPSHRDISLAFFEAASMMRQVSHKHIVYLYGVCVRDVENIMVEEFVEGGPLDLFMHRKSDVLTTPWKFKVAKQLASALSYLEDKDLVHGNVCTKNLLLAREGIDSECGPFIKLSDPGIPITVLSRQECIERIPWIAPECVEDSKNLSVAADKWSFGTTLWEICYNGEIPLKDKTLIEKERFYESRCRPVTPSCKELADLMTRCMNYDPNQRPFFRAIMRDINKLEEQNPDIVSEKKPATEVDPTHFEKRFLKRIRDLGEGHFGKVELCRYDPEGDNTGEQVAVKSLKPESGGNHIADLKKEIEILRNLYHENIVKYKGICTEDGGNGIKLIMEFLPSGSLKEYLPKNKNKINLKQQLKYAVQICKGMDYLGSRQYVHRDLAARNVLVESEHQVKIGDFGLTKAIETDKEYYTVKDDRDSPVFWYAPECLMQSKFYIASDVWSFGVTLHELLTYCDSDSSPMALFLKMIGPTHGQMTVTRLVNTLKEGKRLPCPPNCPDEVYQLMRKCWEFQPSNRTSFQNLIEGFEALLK
Method in brief: as §1

AMPKa1 or AMPKa2 = test: Probe-based (AX9989) kinase profiling in Jurkat lysate: AMPKa1 or AMPKa2; format: binding
Method in brief: as §1

human PBMCs = test: Human PBMC TNF-α response to endotoxin (ELISA); format: cell-based; conditions: 0.1 μg/ml LPS 16 h, read-out: EC50 for the inhibition of the human PBMC TNF-α response to endotoxin, ave. ± S.D.
Method in brief: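 PBMCs at 2e6 cells/ml in RPMI 1640 with 10% charcoal-dextran-treated FBS were pre-treated 1 h at 37 °C with compound (4-point 1:5 dilution from 10 μM). Stimulation with 0.1 μg/ml E. coli 0111:B4 LPS for 16 h; TNF-α measured by ELISA (A450) in 25-fold diluted supernatant.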

ACK = target: T4, ACK (Homo sapiens, UniProt Q07912); test: Probe-based (AX9989) kinase profiling in Jurkat lysate: ACK; format: binding
T4 construct: screened for activity against several kinases in Jurkat cells; endogenous in cells; host or cells: Jurkat cell lysate
T4 sequence (Q07912 whole entry): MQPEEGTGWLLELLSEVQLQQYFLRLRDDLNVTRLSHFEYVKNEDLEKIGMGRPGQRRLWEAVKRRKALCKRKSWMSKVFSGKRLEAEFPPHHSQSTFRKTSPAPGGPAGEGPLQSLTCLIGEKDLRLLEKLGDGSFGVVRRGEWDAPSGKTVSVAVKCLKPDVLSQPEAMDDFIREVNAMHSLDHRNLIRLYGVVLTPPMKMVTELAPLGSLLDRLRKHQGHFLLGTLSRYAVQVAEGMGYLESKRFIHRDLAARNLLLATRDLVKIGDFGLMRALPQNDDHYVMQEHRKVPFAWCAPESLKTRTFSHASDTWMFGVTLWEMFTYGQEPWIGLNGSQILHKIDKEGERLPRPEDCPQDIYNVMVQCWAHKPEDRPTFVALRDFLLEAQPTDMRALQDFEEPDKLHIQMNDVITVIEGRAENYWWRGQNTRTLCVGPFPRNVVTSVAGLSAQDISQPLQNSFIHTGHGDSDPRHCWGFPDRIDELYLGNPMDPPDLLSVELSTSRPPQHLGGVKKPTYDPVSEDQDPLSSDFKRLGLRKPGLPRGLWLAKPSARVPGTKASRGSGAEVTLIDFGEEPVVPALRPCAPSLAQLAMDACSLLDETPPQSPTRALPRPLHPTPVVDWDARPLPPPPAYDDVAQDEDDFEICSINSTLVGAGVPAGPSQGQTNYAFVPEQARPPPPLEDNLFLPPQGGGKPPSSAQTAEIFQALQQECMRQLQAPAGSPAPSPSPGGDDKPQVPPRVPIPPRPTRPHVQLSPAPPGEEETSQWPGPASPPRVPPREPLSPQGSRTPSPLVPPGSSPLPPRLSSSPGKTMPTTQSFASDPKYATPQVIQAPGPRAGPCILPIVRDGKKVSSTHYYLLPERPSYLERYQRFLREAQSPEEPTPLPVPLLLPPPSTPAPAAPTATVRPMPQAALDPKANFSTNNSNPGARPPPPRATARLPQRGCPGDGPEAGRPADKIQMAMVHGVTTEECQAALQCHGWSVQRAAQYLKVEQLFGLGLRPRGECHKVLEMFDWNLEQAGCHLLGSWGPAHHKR
Method in brief: as §1

TAO2 = target: T5, TAO2 (Homo sapiens, UniProt Q9UL54); test: Probe-based (AX9989) kinase profiling in Jurkat lysate: TAO2; format: binding
T5 construct: screened for activity against several kinases in Jurkat cells; endogenous in cells; host or cells: Jurkat cell lysate
T5 sequence (Q9UL54 1-1235): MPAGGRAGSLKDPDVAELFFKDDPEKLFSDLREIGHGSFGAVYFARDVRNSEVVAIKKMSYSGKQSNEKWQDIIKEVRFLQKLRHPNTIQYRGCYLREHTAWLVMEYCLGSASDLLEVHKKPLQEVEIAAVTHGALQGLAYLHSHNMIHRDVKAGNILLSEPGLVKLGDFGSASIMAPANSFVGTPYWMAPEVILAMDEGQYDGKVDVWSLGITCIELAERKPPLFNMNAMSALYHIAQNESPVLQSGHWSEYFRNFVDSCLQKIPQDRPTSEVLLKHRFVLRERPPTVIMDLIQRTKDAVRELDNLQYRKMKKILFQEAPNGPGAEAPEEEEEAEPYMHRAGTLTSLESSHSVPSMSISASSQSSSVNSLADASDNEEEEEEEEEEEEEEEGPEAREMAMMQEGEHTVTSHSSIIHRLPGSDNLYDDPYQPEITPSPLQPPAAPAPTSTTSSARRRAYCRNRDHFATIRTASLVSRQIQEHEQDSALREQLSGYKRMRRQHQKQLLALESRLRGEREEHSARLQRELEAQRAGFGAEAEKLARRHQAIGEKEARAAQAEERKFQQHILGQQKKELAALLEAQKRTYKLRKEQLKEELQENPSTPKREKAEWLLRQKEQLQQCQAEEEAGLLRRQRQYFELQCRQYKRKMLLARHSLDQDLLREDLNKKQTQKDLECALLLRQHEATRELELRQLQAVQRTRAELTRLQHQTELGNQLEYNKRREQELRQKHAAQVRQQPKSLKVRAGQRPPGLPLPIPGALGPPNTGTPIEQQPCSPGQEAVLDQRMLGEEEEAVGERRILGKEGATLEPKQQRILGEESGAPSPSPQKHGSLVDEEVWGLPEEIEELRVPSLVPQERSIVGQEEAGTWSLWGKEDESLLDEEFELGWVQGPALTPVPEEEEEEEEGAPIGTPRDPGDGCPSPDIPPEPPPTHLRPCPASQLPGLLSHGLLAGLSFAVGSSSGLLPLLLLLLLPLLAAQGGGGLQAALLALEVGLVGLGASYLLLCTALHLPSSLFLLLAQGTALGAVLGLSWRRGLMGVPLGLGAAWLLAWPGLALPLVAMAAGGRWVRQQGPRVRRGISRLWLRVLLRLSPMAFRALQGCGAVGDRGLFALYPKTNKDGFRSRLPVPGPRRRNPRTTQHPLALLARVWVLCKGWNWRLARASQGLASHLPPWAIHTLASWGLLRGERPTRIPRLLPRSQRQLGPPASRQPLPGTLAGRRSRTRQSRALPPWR
Method in brief: as §1

AurB or AurC = test: Probe-based (AX9989) kinase profiling in Jurkat lysate: AurB or AurC; format: binding
Method in brief: as §1

[1] = calculated from percent inhibition of AX9989 labeling and the screening concentration
[2] = calculated from percent inhibition and screening concentration, AX9989 probe
[3] = screening concentration 1.0 μM, read-out: Kinase inhibition % at indicated screening concentration: ERK5
[4] = screening concentration 1.0 μM, read-out: Kinase inhibition % at indicated screening concentration: AurA
[5] = screening concentration 1.0 μM, read-out: Kinase inhibition % at indicated screening concentration: JAK1
[6] = screening concentration 1.0 μM, read-out: Kinase inhibition % at indicated screening concentration: ACK
[7] = screening concentration 1.0 μM, read-out: Kinase inhibition % at indicated screening concentration: TAO2

In the case of `CCOc1cc(C(=O)N2CCC(N)C2)ccc1Nc1cc2c(cn1)N(C)C(=O)c1occc1N2C` (centres unmarked) [Compound 11], the “Kinase inhibition % at indicated screening concentration: ABL or ARG” value (“Kinase inhibition % … ABL or ARG” for short) (ABL or ARG; screening concentration 0.1 μM) is reported as “E (E is ≦35%)”, the IC50 (ERK5; [1]) is reported as no more than 50 nM and the inhibition at 0.1 µM (ERK5; screening concentration 0.1 μM, read-out: Kinase inhibition % at indicated screening concentration: ERK5) is reported as greater than 90%. For the same compound, the inhibition at 0.1 µM (AurA; screening concentration 0.1 μM, read-out: Kinase inhibition % at indicated screening concentration: AurA) was no more than 35%, the inhibition at 0.1 µM (JAK1; screening concentration 0.1 μM, read-out: Kinase inhibition % at indicated screening concentration: JAK1) was no more than 35% and the “Kinase inhibition % at indicated screening concentration: AMPKa1 or AMPKa2” value (“Kinase inhibition % … AMPKa1 or AMPKa2” for short) (AMPKa1 or AMPKa2; screening concentration 0.1 μM) was “E (E is ≦35%)”. It also gave an EC50 (human PBMCs) of 2520 nM, an inhibition at 0.1 µM (ACK; screening concentration 0.1 μM, read-out: Kinase inhibition % at indicated screening concentration: ACK) of no more than 35% and an inhibition at 0.1 µM (TAO2; screening concentration 0.1 μM, read-out: Kinase inhibition % at indicated screening concentration: TAO2) of no more than 35%. For the same compound, the “Kinase inhibition % at indicated screening concentration: AurB or AurC” value (shortened to “Kinase inhibition % … AurB or AurC”) (AurB or AurC; screening concentration 0.1 μM) was “E (E is ≦35%)”.
`CCOc1cc(C(=O)N2CC[C@@H](N3CCN(C)CC3)C2)ccc1Nc1cc2c(cn1)N(C)C(=O)c1scnc1N2C` [Compound T74] was tested, and the “ABL or ARG Inhibition % at indicated screening concentration” value (ABL or ARG; screening concentration 1 μM) was “E (E is ≦35%)”, the IC50 (ERK5; [2]) was greater than 500 nM and the inhibition at 1 µM (ERK5; screening concentration 1 μM, read-out: ERK5 Inhibition % at indicated screening concentration) was 50 to 75%. For the same compound, the inhibition at 1 µM (AurA; screening concentration 1 μM, read-out: AurA Inhibition % at indicated screening concentration) was no more than 35%, the inhibition at 1 µM (JAK1; screening concentration 1 μM, read-out: JAK1 Inhibition % at indicated screening concentration) was no more than 35% and the “AMPKa1 or AMPKa2 Inhibition % at indicated screening concentration” value (AMPKa1 or AMPKa2; screening concentration 1 μM) was “E (E is ≦35%)”. The EC50 (human PBMCs) was 4820 nM, the inhibition at 1 µM (ACK; screening concentration 1 μM, read-out: ACK Inhibition % at indicated screening concentration) was no more than 35% and the inhibition at 1 µM (TAO2; screening concentration 1 μM, read-out: TAO2 Inhibition % at indicated screening concentration) was no more than 35%. The “AurB or AurC Inhibition % at indicated screening concentration” value (AurB or AurC; screening concentration 1 μM) was “E (E is ≦35%)”.
In the case of `Cc1cc(C#N)ccc1Nc1cc2c(cn1)N(C)C(=O)c1ccccc1N2C` [Compound 89], the “Kinase inhibition % … ABL or ARG” value (ABL or ARG; screening concentration 1.0 μM) is reported as “E (E is ≦35%)”, the IC50 (ERK5; [1]) is reported as 101 to 500 nM and the inhibition at 1 µM (ERK5; [3]) is reported as 50 to 75%. The inhibition at 1 µM (AurA; [4]) was no more than 35%, the inhibition at 1 µM (JAK1; [5]) was no more than 35% and the “Kinase inhibition % … AMPKa1 or AMPKa2” value (AMPKa1 or AMPKa2; screening concentration 1.0 μM) was “E (E is ≦35%)”. It also gave an EC50 (human PBMCs) of 1750 nM, an inhibition at 1 µM (ACK; [6]) of no more than 35% and an inhibition at 1 µM (TAO2; [7]) of no more than 35%. The “Kinase inhibition % … AurB or AurC” value (AurB or AurC; screening concentration 1.0 μM) was “E (E is ≦35%)”.
`CCOc1cc(C(=O)N2CCN(C3CCN(C)CC3)CC2)ccc1Nc1cc2c(cn1)N(C)C(=O)c1ccccc1[S+]2[O-]` (centres unmarked) [Compound T100] was tested, and the “ABL or ARG Inhibition % at indicated screening concentration” value (ABL or ARG; screening concentration 10 μM) was “E (E is ≦35%)”, the IC50 (ERK5; [2]) was greater than 500 nM and the inhibition at 10 µM (ERK5; screening concentration 10 μM, read-out: ERK5 Inhibition % at indicated screening concentration) was 75 to 90%. The inhibition at 10 µM (AurA; screening concentration 10 μM, read-out: AurA Inhibition % at indicated screening concentration) was no more than 35%, the inhibition at 10 µM (JAK1; screening concentration 10 μM, read-out: JAK1 Inhibition % at indicated screening concentration) was no more than 35% and the “AMPKa1 or AMPKa2 Inhibition % at indicated screening concentration” value (AMPKa1 or AMPKa2; screening concentration 10 μM) was “E (E is ≦35%)”. For the same compound, the EC50 (human PBMCs) was greater than 15000 nM, the inhibition at 10 µM (ACK; screening concentration 10 μM, read-out: ACK Inhibition % at indicated screening concentration) was no more than 35% and the inhibition at 10 µM (TAO2; screening concentration 10 μM, read-out: TAO2 Inhibition % at indicated screening concentration) was no more than 35%. The “AurB or AurC Inhibition % at indicated screening concentration” value (AurB or AurC; screening concentration 10 μM) was “E (E is ≦35%)”.
With `CCOc1cc(C)ccc1Nc1cc2c(cn1)N(C)C(=O)c1ccccc1N2C` [Compound 95] the “Kinase inhibition % … ABL or ARG” value (ABL or ARG; screening concentration 1.0 μM) was “E (E is ≦35%)”, the IC50 (ERK5; [1]) was greater than 500 nM and the inhibition at 1 µM (ERK5; [3]) was no more than 35%. The inhibition at 1 µM (AurA; [4]) was no more than 35%, the inhibition at 1 µM (JAK1; [5]) was no more than 35% and the “Kinase inhibition % … AMPKa1 or AMPKa2” value (AMPKa1 or AMPKa2; screening concentration 1.0 μM) was “E (E is ≦35%)”. It also gave an EC50 (human PBMCs) of 3730 nM, an inhibition at 1 µM (ACK; [6]) of no more than 35% and an inhibition at 1 µM (TAO2; [7]) of no more than 35%. The “Kinase inhibition % … AurB or AurC” value (AurB or AurC; screening concentration 1.0 μM) was “E (E is ≦35%)”.

— US20170008888A1 (KYORIN PHARMACEUTICAL CO., LTD., priority 2014, published 2017)
